The results in this text go back to ChEMBL document CHEMBL3244413, “A phenazine analogue of actinomycin D” (1979).

*1 amine or outer side, *2 acyl side, *3 side chain or, on linkers, in order; H or OH if unused. Where a SMILES comes first, the peptide text is derived from it. Bridges are numbered along the chain shown (N, C = ends). Roman numbers before positions name the chains, in order. [ ]: non-standard residue; d: D form. Actinocin(1to9) = Cc1c2oc3c(C)ccc(C(=O)[*:2])c3nc-2c(C(=O)[*:1])c(N)c1=O; NMeV = CN[C@H](C(=O)O)C(C)C; Sar = CNCC(=O)O

One assay deals with Calf thymus DNA. As to the kind of experiment: Binding affinity to calf thymus DNA at 5.2 x 10^-6 M by CD spectra analysis. The format is nucleic-acid assay. As to conditions: Bos taurus.
The test system of assay [1] is L1210. As to the kind of experiment: Inhibition of DNA synthesis in mouse L1210 cells by [3H]-thymidine incorporation assay. The format is functional. The note with it: read-out: ED50 (the source's name).
For assay [2], the system named is L1210. As to the kind of experiment: Inhibition of RNA synthesis in mouse L1210 cells by [3H]-uridine incorporation assay. The format is functional. The note with it: read-out: ED50 (the source's name).

For the molecule `Cc1ccc(C(=O)N[C@@H]2C(=O)N[C@H](C(C)C)C(=O)N3CCC[C@H]3C(=O)N(C)CC(=O)N(C)[C@@H](C(C)C)C(=O)O[C@@H]2C)c2nc3c(C(=O)N[C@@H]4C(=O)N[C@H](C(C)C)C(=O)N5CCC[C@H]5C(=O)N(C)CC(=O)N(C)[C@@H](C(C)C)C(=O)O[C@@H]4C)cccc3nc12`, in the assay on Calf thymus DNA, the ΔTm is 3.4 °C. In addition, the EC50 in the assay on L1210 [1] came to 9200 nM; with L1210 [2], 230 nM.
For the molecule `Cc1c2oc3c(C)ccc(C(=O)N[C@@H]4C(=O)N[C@H](C(C)C)C(=O)N5CCC[C@H]5C(=O)N(C)CC(=O)N(C)[C@@H](C(C)C)C(=O)O[C@@H]4C)c3nc-2c(C(=O)N[C@@H]2C(=O)N[C@H](C(C)C)C(=O)N3CCC[C@H]3C(=O)N(C)CC(=O)N(C)[C@@H](C(C)C)C(=O)O[C@@H]2C)c(N)c1=O` [DACTINOMYCIN] (I: T[dV]P[Sar][NMeV] / II: T[dV]P[Sar][NMeV]; ester I:1-I:C, II:1-II:C; linker I:N-II:N via Actinocin(1to9)), the ΔTm in the assay on Calf thymus DNA stood at 7.1 °C. Further, the EC50 in the assay with L1210 [1] was 600 nM; in the assay with L1210 [2] it was 15 nM.
For `Cc1c2oc3c(C)ccc(C(=O)N[C@@H]4C(=O)N[C@H](C(C)C)C(=O)N5CCC[C@H]5C(=O)N(C)CC(=O)N(C)[C@@H](C(C)C)C(=O)O[C@@H]4C)c3nc-2c(C(=O)N[C@@H]2C(=O)N[C@H](C(C)C)C(=O)N3CCC[C@H]3C(=O)N(C)CC(=O)N(C)[C@@H](C(C)C)C(=O)O[C@@H]2C)cc1=O` the same measures were 9.9 °C, 63000 nM and 700 nM.
